Among the data in patent publication US20250313548A1 (Actio Biosciences, Inc., priority 2023, published 2025) are IC50 values, retold here.

Bounds are passed on as bounds.

Sequence of human, KCNT1 (Q5JUK3 whole entry): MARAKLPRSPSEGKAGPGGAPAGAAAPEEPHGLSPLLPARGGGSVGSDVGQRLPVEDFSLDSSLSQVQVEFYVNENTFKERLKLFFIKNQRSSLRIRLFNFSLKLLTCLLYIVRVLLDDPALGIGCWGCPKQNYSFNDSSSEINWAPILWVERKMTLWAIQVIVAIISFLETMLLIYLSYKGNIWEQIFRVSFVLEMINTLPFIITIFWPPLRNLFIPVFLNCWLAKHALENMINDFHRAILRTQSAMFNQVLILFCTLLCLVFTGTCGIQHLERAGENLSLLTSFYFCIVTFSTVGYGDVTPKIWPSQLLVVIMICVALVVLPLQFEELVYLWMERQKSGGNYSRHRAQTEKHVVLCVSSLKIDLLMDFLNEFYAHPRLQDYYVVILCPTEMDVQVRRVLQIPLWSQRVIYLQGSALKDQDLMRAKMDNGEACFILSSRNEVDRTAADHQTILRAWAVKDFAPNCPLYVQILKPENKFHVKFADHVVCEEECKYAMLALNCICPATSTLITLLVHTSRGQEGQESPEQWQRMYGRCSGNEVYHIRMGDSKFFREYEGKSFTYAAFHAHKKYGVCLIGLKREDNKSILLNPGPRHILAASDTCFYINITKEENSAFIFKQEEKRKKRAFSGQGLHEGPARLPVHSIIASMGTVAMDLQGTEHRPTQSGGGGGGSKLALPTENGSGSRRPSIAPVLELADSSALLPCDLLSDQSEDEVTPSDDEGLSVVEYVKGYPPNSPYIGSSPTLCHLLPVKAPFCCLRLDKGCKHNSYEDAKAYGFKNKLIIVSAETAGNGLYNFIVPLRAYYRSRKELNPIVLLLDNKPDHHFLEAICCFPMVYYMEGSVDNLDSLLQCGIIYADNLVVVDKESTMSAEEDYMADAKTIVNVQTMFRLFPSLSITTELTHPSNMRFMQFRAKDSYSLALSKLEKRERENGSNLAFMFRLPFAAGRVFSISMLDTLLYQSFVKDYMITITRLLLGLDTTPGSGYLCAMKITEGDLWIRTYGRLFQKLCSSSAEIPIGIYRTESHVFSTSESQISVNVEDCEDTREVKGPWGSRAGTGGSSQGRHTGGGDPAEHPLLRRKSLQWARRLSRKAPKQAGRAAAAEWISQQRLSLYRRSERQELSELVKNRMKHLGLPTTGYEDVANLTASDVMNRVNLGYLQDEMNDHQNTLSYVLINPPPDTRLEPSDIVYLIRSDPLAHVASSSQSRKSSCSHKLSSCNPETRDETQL

The target in this test is human, KCNT1 (Homo sapiens (Human), UniProt Q5JUK3). The experiment in a line: FLIPR Tl/K Flux Assay. The class given is cell-based. Particulars: HEK293 cells stably expressing human KCNT1; Tl+ flux stimulated with EC80 of agonist Loxapine. On the procedure:
HEK293 cells stably expressing human, KCNT1 were cultured in DMEM, 10% FBS, 100 U/mL penicillin-streptomycin and […] puromycin for selection purposes. One day before the assay, cells were detached using TrypLE™ Express and counted using a cell counter. Only cells with >85% viability were used for the assay. […] The cells were incubated overnight at 37° C., 5% (v/v) CO2.
On the day of the assay, the reagents were prepared following the FLIPR® Potassium Assay Kit manual: prepare 2× dye solution, dilute the dye with assay buffer (20 mM HEPES in 1× HBSS, PH7.4), addition of probenecid to a final concentration of 5 mM, and vortexed vigorously for 1-2 minutes. The cell plate was flicked to remove medium and tapped on paper towels to remove excess media. […] The cell plate was moved to a plate shaker, agitated at 600 rpm for two minutes, and then incubated at 25° C. for one hour.
The compounds were prepared in DMSO and transferred to a 384-well compound plate (PP, low binding), referred to as a source plate. Reference agonist (300 nM) compound and test inhibitor (10 mM) compounds were added to the compound plate and a 4-fold serial dilution was performed in DMSO. Using an ECHO dispenser, compounds were dispensed at 90 nL/well from the source plate to a 384-well compound plate (PP, low binding). After the dispensing was complete, 30 µL/well assay buffer was added to the compound plate and mixed for two minutes on a plate shaker. The cell plate, compound plate, and tips were loaded into the FLIPR instrument, and a transfer of 10 μl of 3× compound to the cell plate was initiated. The treated cell plate was kept at in the dark at 25° C. for 30 minutes. Chloride-free stimulation buffer containing 4× 2 mM Tl+ and 4×EC80 of agonist Loxapine was loaded into a 384-well compound plate (PP, low binding). After the 30-minute incubation, the cell plate, compound plate containing stimulation buffer, and FLIPR tips were loaded into the FLIPR instrument. After a baseline read, the FLIPR initiates a transfer of 10 μL of stimulation buffer containing Loxapine to the cell plate. The plate was read for 160 sec with 1 second interval reads to obtain the data.
The normalized fluorescence reading (RFU) was calculated as shown follow, while Fmax and Fmin stand for maximum and minimum of signal during defined time window. The IC50 was calculated by fitting % inhibition against log of compound concentrations with Hill equation using XLfit.
`N#Cc1cccc(C(=O)N[C@H]2CCCc3nn(-c4ccnc(C(F)(F)F)c4)cc32)c1` [Compound I-112a, (S)-3-Cyano-N-(2-(2-(trifluoromethyl)pyridin-4-yl)-4,5,6,7-tetrahydro-2H-indazol-4-yl)benzamide] showed an IC50 of under 0.25 µM.

As to `Cn1ncc(C(=O)N[C@H]2CCCn3nc(-c4ccnc(C(F)(F)F)c4)cc32)c1Cl` [Compound I-407a], the IC50 lay in the range of 0.25 to 0.5 µM.

`O=C(N[C@H]1CCCc2nc(-c3ccnc(C(F)(F)F)c3)oc21)c1cccc(C(F)(F)F)c1` [Compound I-188a, (S)-3-(Trifluoromethyl)-N-(2-(2-(trifluoromethyl)pyridin-4-yl)-4,5,6,7-tetrahydrobenzo[d]oxazol-7-yl)benzamide] had an IC50 of under 0.25 µM.

Molecule `Cn1nc(C(C)(F)F)cc1C(=O)N[C@H]1CCCn2nc(-c3ccnc(C(F)(F)F)c3)cc21` [Compound I-363a] returned a 50% inhibitory concentration (IC50) of under 0.25 µM.

In the case of `CCc1cc(-n2cc3c(n2)CC[C@H]3NC(=O)c2cc(C(F)(F)F)nn2C)ccn1` [Compound I-69b], the IC50 is over 1 µM.

Take `Cc1c2c(nn1-c1ccnc(C(F)(F)F)c1)CCC[C@@H]2NC(=O)c1cc(C(F)(F)F)nn1C` [Compound I-90a]: the IC50 fell in the range of 0.25 to 0.5 µM.

The molecule `CC(C)c1cc(-n2cc3c(n2)CC[C@H]3NC(=O)c2cc(C(F)(F)F)nn2C)ccn1` [Compound I-70b] registered an IC50 of over 1 µM.

In turn, `Cc1cnc(C(F)(F)F)cc1-c1cc2n(n1)CC[C@@H]2NC(=O)c1nc(C(F)(F)F)nn1C` [Compound I-141a, (S)-1-Methyl-N-(2-(5-methyl-2-(trifluoromethyl)pyridin-4-yl)-5,6-dihydro-4H-pyrrolo[1,2-b]pyrazol-4-yl)-3-(trifluoromethyl)-1H-1,2,4-triazole-5-carboxamide] returned an IC50 of under 0.25 µM.

Molecule `COc1cc(-c2cc3n(n2)CCC3NC(=O)c2nc(C(F)(F)F)nn2C)ccn1` (single isomer, unassigned) [Compound I-473] displayed a half-maximal inhibitory concentration (IC50) of over 1 µM.

The molecule `CCOc1cc(F)cc(C(=O)N[C@H]2CCCn3nc(-c4ccnc(C(F)(F)F)c4)cc32)c1` [Compound I-579a] registered an IC50 of under 0.25 µM.

`Cn1nc(C(F)(F)F)cc1C(=O)N[C@@H]1CCCc2cn(-c3ccnc(C(F)(F)F)c3)nc21` [Compound I-87b] yielded an IC50 of over 1 µM.

As to `O=C(N[C@H]1CCCc2oc(-c3ccnc(C(F)(F)F)c3)nc21)c1cn(C(F)(F)F)nc1C(F)(F)F` [Compound I-520a, (S)-1,3-bis(trifluoromethyl)-N-(2-(2-(trifluoromethyl)pyridin-4-yl)-4,5,6,7-tetrahydrobenzo[d]oxazol-4-yl)-1H-pyrazole-4-carboxamide], the concentration for half-maximal inhibition (IC50) is under 0.25 µM.

For `Cn1nc(C(F)(F)F)cc1C(=O)N[C@H]1CCCc2cnc(-c3ccnc(C(F)(F)F)c3)nc21` [Compound I-452a], the half-maximal inhibitory concentration (IC50) was 0.25 to 0.5 µM.

As to `N#Cc1cc(C(=O)N[C@H]2CCCn3nc(-c4ccnc(C(F)(F)F)c4)cc32)cc(C(F)(F)F)c1` [Compound I-295a, (S)-3-Cyano-5-(trifluoromethyl)-N-(2-(2-(trifluoromethyl)pyridin-4-yl)-4,5,6,7-tetrahydropyrazolo[1,5-a]pyridin-4-yl)benzamide], the IC50 was under 0.25 µM.

Take `O=C(N[C@H]1CCCc2nc(-c3ccnc(C(F)(F)F)c3)oc21)c1ccnc(OC(F)(F)F)c1` [Compound I-186a, (S)-2-(Trifluoromethoxy)-N-(2-(2-(trifluoromethyl)pyridin-4-yl)-4,5,6,7-tetrahydrobenzo[d]oxazol-7-yl)isonicotinamide]: the IC50 is under 0.25 µM.

As for `O=C(N[C@H]1CCn2nc(-c3cc(C(F)(F)F)ncc3F)cc21)C1CC2(CC2)C1` [Compound I-522a, (S)—N-(2-(5-Fluoro-2-(trifluoromethyl)pyridin-4-yl)-5,6-dihydro-4H-pyrrolo[1,2-b]pyrazol-4-yl)spiro[2.3]hexane-5-carboxamide], the 50% inhibitory concentration (IC50) was under 0.25 µM.

As to `N#Cc1cc(F)cc(C(=O)N[C@H]2CCCc3oc(-c4ccnc(C(F)(F)F)c4)nc32)c1` [Compound I-298a, (S)-3-Cyano-5-fluoro-N-(2-(2-(trifluoromethyl)pyridin-4-yl)-4,5,6,7-tetrahydrobenzo[d]oxazol-4-yl)benzamide], the IC50 was under 0.25 µM.

With `CCOc1cc(C(=O)NC2CCCc3nn(-c4ccnc(C(F)(F)F)c4)cc32)n(C)n1` (racemic) [Compound I-22, (rac)-3-Ethoxy-1-methyl-N-(2-(2-(trifluoromethyl)pyridin-4-yl)-4,5,6,7-tetrahydro-2H-indazol-4-yl)-1H-pyrazole-5-carboxamide], the IC50 is 0.25 to 0.5 µM.

`N#Cc1cc(C(=O)N[C@H]2CCCCn3nc(-c4ccnc(C(F)(F)F)c4)cc32)ccc1F` [Compound I-277a, (S)-3-Cyano-4-fluoro-N-(2-(2-(trifluoromethyl)pyridin-4-yl)-5,6,7,8-tetrahydro-4H-pyrazolo[1,5-a]azepin-4-yl)benzamide] registered a half-maximal inhibitory concentration (IC50) of under 0.25 µM.

`N#Cc1cc(F)cc(C(=O)N[C@H]2CCc3nn(-c4ccnc(C(F)(F)F)c4)cc32)c1` [Compound I-455a] returned an IC50 of under 0.25 µM.

The molecule `Cn1nc(C(F)(F)F)cc1C(=O)N[C@H]1CCCn2nc(-c3cc(C(F)(F)F)ncc3F)cc21` [Compound I-209a, (S)-N-(2-(5-Fluoro-2-(trifluoromethyl)pyridin-4-yl)-4,5,6,7-tetrahydropyrazolo[1,5-a]pyridin-4-yl)-1-methyl-3-(trifluoromethyl)-1H-pyrazole-5-carboxamide] returned an IC50 of under 0.25 µM.

The molecule `Cn1nc(C(=O)N[C@H]2CCCc3nn(-c4ccnc(C(F)(F)F)c4)cc32)cc1C(C)(F)F` [Compound I-49a] gave an IC50 of over 1 µM.

On to `COc1cc(C(=O)N[C@H]2CCCCn3nc(-c4ccnc(C(C)(F)F)c4)cc32)ccn1` [Compound I-273a], for which the IC50 is under 0.25 µM.

For the molecule `Cn1nc(C(F)(F)F)cc1C(=O)N[C@H]1CCc2nn(-c3ccnc(OC(F)(F)F)c3)cc21` [Compound I-73a], the IC50 is under 0.25 µM.

In turn, `O=C(N[C@H]1CCc2nn(-c3ccnc(C4CC4)c3)cc21)c1cc(F)cc(F)c1` [Compound I-462a] came in with an IC50 of under 0.25 µM.

Take `O=C(N[C@H]1CCn2nc(-c3ccnc(C(F)(F)F)c3)cc21)c1ccnc(OC(F)(F)F)c1` [Compound I-198a, (S)-2-(Trifluoromethoxy)-N-(2-(2-(trifluoromethyl)pyridin-4-yl)-5,6-dihydro-4H-pyrrolo[1,2-b]pyrazol-4-yl)isonicotinamide]: the IC50 was under 0.25 µM.

`COc1ccccc1C(=O)N[C@H]1CCc2nn(-c3ccnc(C(F)(F)F)c3)cc21` [Compound I-94a] returned an IC50 of under 0.25 µM.

The molecule `Cc1cc(-c2cc3n(n2)CCC[C@@H]3NC(=O)c2cc(C(F)(F)F)nn2C)cc(C(F)(F)F)n1` [Compound I-432a] registered an IC50 of under 0.25 µM.

As to `CCOc1cc(C(=O)N[C@H]2CCCn3nc(-c4ccnc(C(F)(F)F)c4)cc32)ccn1` [Compound I-282a, (S)-2-Ethoxy-N-(2-(2-(trifluoromethyl)pyridin-4-yl)-4,5,6,7-tetrahydropyrazolo[1,5-a]pyridin-4-yl)isonicotinamide], the IC50 was under 0.25 µM.

For the molecule `Cc1cccc(C(=O)N[C@@H]2CCCCc3nn(-c4ccnc(C5CC5)c4)cc32)c1` [Compound I-58b], the IC50 lay in the range of 0.5 to 1 µM.

Molecule `COc1cc(C(=O)N[C@H]2CCn3nc(-c4cc(OC)ncc4F)cc32)ccn1` [Compound I-560a, (S)-N-(2-(5-Fluoro-2-methoxypyridin-4-yl)-5,6-dihydro-4H-pyrrolo[1,2-b]pyrazol-4-yl)-2-methoxyisonicotinamide] came in with an IC50 of under 0.25 µM.

The molecule `Cc1cc(C)cc(C(=O)N[C@H]2CCc3nn(-c4ccnc(C(F)(F)F)c4)cc32)c1` [Compound I-372a] gave an IC50 of under 0.25 µM.

`O=C(N[C@H]1CCCn2nc(-c3cc(C(F)(F)F)ncc3Cl)cc21)c1ccnc(OC(F)(F)F)c1` [Compound I-179a, (S)-N-(2-(5-Chloro-2-(trifluoromethyl)pyridin-4-yl)-4,5,6,7-tetrahydropyrazolo[1,5-a]pyridin-4-yl)-2-(trifluoromethoxy)isonicotinamid] showed an IC50 of under 0.25 µM.

In the case of `CC(C)n1nc(C(F)(F)F)cc1C(=O)N[C@H]1CCCn2nc(-c3ccnc(C(F)(F)F)c3)cc21` [Compound I-381a], the IC50 was under 0.25 µM.

Regarding `O=C(N[C@H]1CCn2nc(-c3cc(C4CC4)ncc3F)cc21)C12CC(C(F)(F)F)(C1)C2` [Compound I-559a, (S)-N-(2-(2-Cyclopropyl-5-fluoropyridin-4-yl)-5,6-dihydro-4H-pyrrolo[1,2-b]pyrazol-4-yl)-3-(trifluoromethyl)bicyclo[1.1.1]pentane-1-carboxamide], the IC50 was under 0.25 µM.
